In patent US3991202A, “Imidazolium salts” (Janssen Pharmaceutica N.V., priority 1974, dated 1976):
Where two headings read alike, the source gives them in different places.

How the values were obtained:
Format in all cases: cell-based
Microsporum canis = assay: Antifungal growth inhibition in Sabouraud's liquid medium; details: Microsporum canis, 336 h, M.c., read-out: Concentrations in μg/ml for 100% Inhibition of Growth
Experimental: (§1) Tests for the control of fungal organisms were performed using Sabouraud's liquid medium (1 g. of neopeptone Difco and 2 g. of glucose Difco per 100 ml. distilled water) in test tubes, each containing 4.5 ml. of liquid medium, autoclaved at 120° C for 15 minutes. The imidazolium salts were prepared for testing by dissolving in 50% ethanol to a concentration of 20 mg./ml. and thereafter diluting with sterile distilled water to obtain a concentration of 10 mg./ml. Successive decimal dilutions were then made with sterile distilled water to prepare a series of test solutions. In carrying out the test, 0.5 ml. of one of the test solutions is added to 4.5 ml. of Sabouraud's liquid medium to obtain a test medium. In this manner, from appropriate test solution, test media containing 100 μg, 10 μg and 1 μg of imidazolium salt per milliliter of medium were obtained.
(§2) Control tubes were prepared by adding 0.5 ml. of sterile distilled water to 4.5 ml. of medium. Ethanol was also added to simulate the amount which would be present in the test media. Filamentous fungi were incubated at 25° C for two to three weeks. A square block of side 2 mm. was excised and inoculated into the liquid medium. A 3-day old culture on Sabouraud's liquid medium was used for yeasts. The inoculum was 0.05 ml. per tube. All cultures were incubated at 25° C for 14 days.

[1] = test system: Ctenomyces mentagrophytes; assay: as above; details: Trichophyton mentagrophytes, 336 h; Ct.m.; tested at 100, 10, 1 μg/ml; read-out: Concentrations in μg/ml for 100% Inhibition of Growth
Experimental: as §1, §2

Trichophyton rubrum = assay: as above; details: Trichophyton rubrum, 336 h; Tr.r.; tested at 100, 10, 1 μg/ml; read-out: Concentrations in μg/ml for 100% Inhibition of Growth
Experimental: as §1, §2

Cryptococcus neoformans = assay: as above; details: Cryptococcus neoformans, 336 h; Cr.n.; tested at 100, 10, 1 μg/ml; read-out: Concentrations in μg/ml for 100% Inhibition of Growth
Experimental: as §1, §2

[2] = test system: Staphylococcus hemolyticus; assay: Antibacterial growth inhibition in phenol red dextrose broth; details: 168 h, Staph., tested at 100, 10, 1 μg/ml, read-out: Concentration in μ g for 100% Growth Inhibition
Experimental: (§3) The tests on bacteria were performed on cultures on phenol red dextrose broth medium (Difco). By using decimal dilution techniques described for the tests for antifungal activity, test media containing 100 μg, 10 μg and 1 μg of imidazolium salt per milliliter of medium were obtained. The inoculum consisted of a platinum loop (5 mm diameter) from a 24 hour broth culture. Forty-eight hours after incubation, subcultures were made from each culture for the determination of antibacterial activity of the imidazolium salts. After seven days of incubation, observations were made to determine the presence or absence of bacterial growth.

Erysipelothrix insidiosa = assay: as above; details: Erysipelothrix rhusiopathiae, 168 h; E. ins.; tested at 100, 10, 1 μg/ml; read-out: Concentration in μ g for 100% Growth Inhibition
Experimental: as §3

[3] = test system: Salmonella pullorum gallinarum; assay: as above; details: Salmonella enterica, 168 h; Sp. G.; tested at 100, 10, 1 μg/ml; read-out: Concentration in μ g for 100% Growth Inhibition
Experimental: as §3

Streptococcus pyogenes = assay: as above; details: 168 h, Strep., tested at 100, 10, 1 μg/ml, read-out: Concentration in μ g for 100% Growth Inhibition
Experimental: as §3

Escherichia coli = assay: as above; details: 168 h, E. coli, tested at 100, 10, 1 μg/ml, read-out: Concentration in μ g for 100% Growth Inhibition
Experimental: as §3

Pseudomonas aeruginosa = assay: as above; details: 168 h, Ps. aer., tested at 100, 10, 1 μg/ml, read-out: Concentration in μ g for 100% Growth Inhibition
Experimental: as §3

Compound	MIC (Microsporum canis; tested at 100, 10, 1 μg/ml) [µg/mL]	MIC [1] [µg/mL]	MIC (Trichophyton rubrum) [µg/mL]	MIC (Cryptococcus neoformans) [µg/mL]	MIC [2] [µg/mL]	MIC (Erysipelothrix insidiosa) [µg/mL]	MIC [3] [µg/mL]	MIC (Streptococcus pyogenes) [µg/mL]	MIC (Escherichia coli) [µg/mL]	MIC (Pseudomonas aeruginosa) [µg/mL]	MIC (Microsporum canis; growth observed at 100 μg/ml) [µg/mL]
Cc1ccc(OCC[n+]2ccn(CC(OCc3ccc(Cl)cc3Cl)c3ccc(Cl)cc3Cl)c2)cc1 (stereo not drawn) [(CH2)2OC6H4pCH3, 1-[2,4-dichloro-β-(2,4-dichlorobenzyloxy)phenethyl]-3-[2-(p-tolyoxy)ethyl]imidazolium bromide]	10	10	1	10	1	1	10	1	10	100	
Clc1ccc(COC(Cn2cc[n+](CCOc3ccccc3)c2)c2ccc(Cl)cc2Cl)c(Cl)c1.[Br-] (stereo not drawn) [(CH2)2OC6H5, 1-[2,4-dichloro-β-(2,4-dichlorobenzyloxy)phenethyl]-3-(2-phenoxyethyl)imidazolium bromide]	10	10	1	10	1	1	10	1	10	100	
Cc1ccc(C[n+]2ccn(CC(OCc3ccc(Cl)cc3Cl)c3ccc(Cl)cc3Cl)c2)cc1C.[Cl-] (stereo not drawn) [CH2C6H33,4(CH3)2, 1-[2,4-Dichloro-β-(2,4-dichlorobenzyloxy)phenethyl]-3-(3,4-dimethylbenzyl)imidazolium chloride]	10	1	1	10	1	1	10	1	10	100	
OC(C[n+]1ccn(CC(OCc2ccc(Cl)cc2Cl)c2ccc(Cl)cc2Cl)c1)c1ccc(Cl)cc1Cl.[Cl-] (stereo not drawn) [CH2CHOHC6H32,4(Cl)2, 1-[2,4-dichloro-β-(2,4-dichlorobenzyloxy)phenethyl]-3-(2,4dichloro-β-hydroxyphenethyl)imidazolium chloride]	1	1	1	10	1	1	10	1	10	100	
O=C(C[n+]1ccn(CC(OCc2ccc(Cl)cc2Cl)c2ccc(Cl)cc2Cl)c1)c1ccc(F)cc1.[Cl-] (stereo not drawn) [CH2COC6H4pF, 1-[2,4-dichloro-β-(2,4-dichlorobenzyloxy)phenethyl]-3-(p-fluorobenzoylmethyl)-imidazolium chloride]	1	1	1	10	1	1	10	1	10	100	
Cc1ccccc1NC(=O)C[n+]1ccn(CC(OCc2ccc(Cl)cc2Cl)c2ccc(Cl)cc2Cl)c1 (stereo not drawn) [CH2CONHC6H4oCH3, 1-[2,4-Dichloro-β-(2,4-dichlorobenzyloxy)phenethyl]-3-(N-o-tolylcarbamoylmethyl)imidazolium chloride]	10	1	1	1	1	1	10	1	10	100	
COc1ccccc1NC(=O)C[n+]1ccn(CC(OCc2ccc(Cl)cc2Cl)c2ccc(Cl)cc2Cl)c1 (stereo not drawn) [CH2CONHC6H4oOCH3, 1-[2,4-dichloro-β-(2,4-dichlorobenzyloxy)phenethyl]-3-[N-(o-methoxyphenyl)carbamoylmethyl]imidazolium chloride hydrate]					1	1	10	1	10	100	
O=C(C[n+]1ccn(CC(OCc2ccc(Cl)cc2Cl)c2ccc(Cl)cc2Cl)c1)Nc1ccc(Cl)cc1 (stereo not drawn) [CH2CONHC6H4p(Cl), 1-[N-(p-chlorophenyl)carbamoylmethyl]-3-[2,4-dichloro-β-(2,4-dichlorobenzyloxy)phenethyl]imidazolium chloride hydrate]					10	1	100	1	10	100	
O=C(C[n+]1ccn(CC(OCc2ccc(Cl)cc2Cl)c2ccc(Cl)cc2Cl)c1)Nc1ccc(F)cc1 (stereo not drawn) [CH2CONHC6H4pF, 1-[2,4-dichloro-β-(2,4-dichlorobenzyloxy)phenethyl]-3-[N-(p-fluorophenyl)carbamoylmethyl]imidazolium chloride]					1	1	10	1	10	100	
COc1ccc(NC(=O)C[n+]2ccn(CC(OCc3ccc(Cl)cc3Cl)c3ccc(Cl)cc3Cl)c2)cc1 (centres unmarked) [CH2CONHC6H4pOCH3]					1	1	10	1	10	100	
O=C(C[n+]1ccn(CC(OCc2ccc(Cl)cc2Cl)c2ccc(Cl)cc2Cl)c1)Nc1ccc(Cl)cc1Cl (stereo not drawn) [CH2CONHC6H32,4(Cl)2, 1-[2,4-dichloro-β-(2,4-dichlorobenzyloxy)phenethyl]-3-[N-(2,4-dichlorophenyl)carbamoylmethyl]imidazolium chloride hydrate]	10	10	10	1	1	1	10	1	10	100	
Cc1ccc(CNC(=O)C[n+]2ccn(CC(OCc3ccc(Cl)cc3Cl)c3ccc(Cl)cc3Cl)c2)cc1 (stereo not drawn) [CH2CONHCH2C6H4pCH3, 1-[2,4-Dichloro-β-(2,4-dichlorobenzyloxy)phenethyl]-3-[N-(p-methylbenzyl)carbamoylmethyl]imidazolium chloride]					10	10	10	10	10	100	
CC(C(=O)Nc1cccc(Cl)c1)[n+]1ccn(CC(OCc2ccc(Cl)cc2Cl)c2ccc(Cl)cc2Cl)c1 (stereo not drawn) [CH(CH3)CONHC6H4mCl, 1-{1-[N-(m-Chlorophenyl)carbamoyl]ethyl 56-3-[2,4-dichloro-β-(2,4-dichlorobenzyloxy)phenethyl]imidazolium bromide]					1	1	100	1	100	100	
Fc1ccc(C(c2ccc(Cl)cc2)[n+]2ccn(CC(OCc3ccc(Cl)cc3Cl)c3ccc(Cl)cc3Cl)c2)cc1 (centres unmarked) [drawing 69]					1	1	100	1	100	100	
O=C(C[n+]1ccn(CC(OCc2ccc(Cl)cc2)c2ccc(Cl)cc2)c1)Nc1ccc(F)cc1 (stereo not drawn) [pClC6H4/CH2C6H4pCl/CH2CONHC6H4pF, 1-[p-Chloro-β-(p-chlorobenzyloxy)phenethyl]-3-[N-(p-fluorophenyl)carbamoylmethyl]imidazolium chloride]		1	10	100	10	10	10	1	100	100	> 100
